Reference: patent US11738030B2, “Treatments for disturbed cerebral homeostasis” (Aneuryst, Inc., priority 2021, dated 2023)
Where a name gives a salt, the structure may show the parent alone. Read-outs that look alike come from different tables or passages of the source.

What was measured:
[1] = Intraparenchymal ICP measurement in adult patient with suspected bacterial meningitis; assay type: in vivo; conditions: 60 mg intravenous infusion; adult patient with ICP>20 mmHg and suspected bacterial meningitis
Experimental: In an adult patient with an ICP>20 mmHg and suspected bacterial meningitis as determined by lumbar puncture, one would administer by intravenous infusion 60 mg fasudil hydrochloride. One would place an intraparenchymal device to measure ICP in the patient.

[2] = system: adult male Sprague-Dawley rats; conditions: cited from earlier work; for Mean percentage of brain water content, Cerebellum / Mean percentage of brain water content, Left Hemisphere / Mean percentage of brain water content, Right Hemisphere: 24 hrs post-surgery
[3] = system: adult male Sprague-Dawley rats; conditions: cited from earlier work; for Garcia neurological score: SAH + HF
[4] = system: adult male Sprague-Dawley rats; test: Brain water content after endovascular perforation in rats; assay type: in vivo, rat; conditions: one treatment, 24 h
Experimental: A sharpened 4-0 nylon suture was introduced into the left internal carotid artery of 92 adult male Sprague-Dawley rats weighing […]. In 65 of the 92 rats, the bifurcation of the anterior and middle cerebral arteries was endovascularly perforated; in the remaining 27 rats, the suture was withdrawn without perforation.
At 0.5 hours after the procedure, 34 of the 65 perforated rats were administered 1.5 ml of 0.9% saline (vehicle group), and the remaining 31 were administered 10 mg/kg hydroxyfasudil dissolved in 1.5 ml of 0.9% saline (hydroxyfasudil group). The 27 unperforated rats received neither vehicle nor […] (sham group).
24 hours after the procedure, all rats were sacrificed. The animals' brains were removed and separated into left hemisphere, right hemisphere, cerebellum and brain stem. Each part was weighed immediately after removal (wet weight) and after drying in 100° C. for 72 h (dry weight). The percentage of water content was calculated as [(wet weight−dry weight)/wet weight]×100%.

[5] = one treatment, 10 mg/kg at 0.5 h after perforation, 10 mg/kg
[6] = one treatment, 10 mg/kg at 0.5 h after perforation, listed as HF, 10 mg/kg
[7] = two treatments instead of one, and measurements at 72 hours after perforation

## O=S(=O)(c1cccc2cnccc12)N1CCCNCC1 [fasudil hydrochloride]
[1]
  ICP upon fasudil infusion: reduction of ICP

## O=c1[nH]ccc2c(S(=O)(=O)N3CCCNCC3)cccc12 [hydroxyfasudil]
[2]; [5]
  Mean percentage of brain water content, Cerebellum: ~78.7%
  Mean percentage of brain water content, Left Hemisphere: ~79.3%
  Mean percentage of brain water content, Right Hemisphere: ~79.25%
[2]; [6]
  Mean percentage of brain water content, Cerebellum: 78.7%
  Mean percentage of brain water content, Left Hemisphere: 79.3%
  Mean percentage of brain water content, Right Hemisphere: 79.35%
[2]; [7]
  Difference in brain water content between vehicle group and hydroxyfasudil group: failed to demonstrate any significant differences
[2]; two treatments
  Mean percentage of brain water content, Cerebellum: 78.84%
  Mean percentage of brain water content, Left Hemisphere: 79.3%
  Mean percentage of brain water content, Right Hemisphere: 79.25%
[3]; 1 treatment, 24 hrs, score out of 18
  Garcia neurological score: 14
[3]; 1 treatment, 72 hrs
  Garcia neurological score: 14
[3]; 2 treatments, 24 hrs
  Garcia neurological score: 15.5
[3]; [7]
  Difference in neurological performance between vehicle group and hydroxyfasudil group: failed to demonstrate any significant differences
[4]; vehicle increase 0.5%
  Increase in water content versus sham group, right hemisphere: about 0.25%
[4]; vehicle increase 0.6%
  Increase in water content versus sham group, cerebellum: about 0.2%
[4]; vehicle increase 0.7%
  Increase in water content versus sham group, left hemisphere: about 0.3%
[4]; versus vehicle, p<0.01
  Improvement in water content increase, left hemisphere: about 57%
  Improvement in water content increase, right hemisphere: about 70%
[4]; versus vehicle, p<0.05
  Improvement in water content increase, cerebellum: about 67%
